Assay: Storage stability of [^125I] 5 in the refrigerator
Format: physicochemical
Conditions: 4 °C, storage time over which compound found stable

**Q.** With O=CCCCNC(=O)c1ccc([125I])cc1 [[^125I] 5] as the compound, how does the “stable in the refrigerator (no hydrolysis)” value read?
**A.** The value was “more than 6 months”.

— article PMC6044831 (ACS Omega, 2018)
